Results published in ChEMBL document CHEMBL1136661, “Interfacial peptide inhibitors of HIV-1 integrase activity and dimerization” (Bioorg Med Chem Lett, 2003).

Target: Human immunodeficiency virus type 1 integrase (Human immunodeficiency virus 1, UniProt Q7ZJM1)
Assay: Inhibitory activity of compound against HIV-1 integrase

Sequence of Human immunodeficiency virus type 1 integrase (Q7ZJM1 whole entry): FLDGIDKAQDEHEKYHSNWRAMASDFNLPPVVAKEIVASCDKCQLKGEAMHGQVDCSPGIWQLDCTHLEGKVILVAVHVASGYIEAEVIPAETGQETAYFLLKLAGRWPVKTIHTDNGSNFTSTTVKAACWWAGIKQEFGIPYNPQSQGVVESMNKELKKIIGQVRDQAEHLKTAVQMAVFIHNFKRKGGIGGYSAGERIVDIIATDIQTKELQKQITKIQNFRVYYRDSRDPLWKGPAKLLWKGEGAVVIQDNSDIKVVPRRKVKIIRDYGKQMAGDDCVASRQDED

Compound | IC50 [µM]
CC[C@@H](C)[C@H](NC(=O)[C@H](CCCNC(=N)N)NC(=O)[C@H](CCC(=O)O)NC(=O)CNC(=O)[C@H](C)N)C(=O)N[C@H](C(=O)N[C@@H](CC(=O)O)C(=O)N[C@H](C(=O)N[C@H](C(=O)N[C@@H](C)C(N)=O)[C@@H](C)CC)[C@@H](C)CC)C(C)C | 30
H-AGERIVDIIATDIQ-NH2 | 2
H-GYIEAEVI-NH2 | > 1000
H-HLKTAVQMAVFIHNFKR-NH2 | 3
H-QETAYFLLKLAGR-NH2 | 150
H-QETAYFLLKLAGRWP-NH2 | 35
H-STTVKAASWWA-NH2 | > 1000
